Tests used:
[1] = Assay for determination of apparent permeability (Papp), bi-directional transport; assay type: in vitro ADME; conditions: pig, LLC-PK1; 1 μM test compound, t=3 h, average of A to B and B to A; read-out: Papp LLC-PK-1 cells
Protocol: Bi-directional transport was evaluated in LLC-PK1 cells in order to determine apparent permeability (Papp). LLC-PK1 cells can form a tight monolayer and therefore can be used to assess vectorial transport of compounds from basolateral to apical (B→A) and from apical to basolateral (A→B).
To determine Papp, LLC-PK1 cells were cultured in 96-well transwell culture plates (Millipore). Solutions containing the test compounds (1 μM) were prepared in Hank's Balanced Salt Solution with 10 mM HEPES. Substrate solution (150 μL) was added to either the apical (A) or the basolateral (B) compartment of the culture plate, and buffer (150 μL) was added to the compartment opposite to that containing the compound. At t=3 h, 50 μL samples were removed from both sides of monolayers dosed with test compound and placed in 96 well plates, scintillant (200 μL) or internal standard (100 μL labetolol 104) was added to the samples and concentration was determined by liquid scintillation counting in a MicroBeta Wallac Trilux scintillation counter (Perkin Elmer Life Sciences, Boston, Mass.) or by LCMS/MS (Applied Biosystems SCIEX API 5000 triple quadruple mass spectrometer). [^3H]Verapamil (1 μM) was used as the positive control. The experiment was performed in triplicate.
The apparent permeability, Papp, was calculated by the following formula for samples taken at t=3 h:
[formula] Where: Volume of Receptor Chamber was 0.15 mL; Area of membrane was 0.11 cm^2; the Initial Concentration is the sum of the concentration measured in the donor plus concentration measured in receiver compartments at t=3 h; Δ in Concentration is concentration in the receiver compartment at 3 h; and Δ in Time is the incubation time (3×60×60=10800 s). Papp was expressed as 10^−6 cm/s. The Papp (LLC-PK1 cells) are the average of the Papp for transport from A to B and Papp for transport from B to A at t=3 h: […]

human O-GlcNAcase = human O-GlcNAcase (Homo sapiens (Human), UniProt O60502); experiment: Assay for determination of Ki values for inhibition of O-GlcNAcase activity (fluorescence-based); assay type: biochemical; conditions: purified human O-GlcNAcase 0.7 nM, 2 mM 4-methylumbelliferyl N-acetyl-β-D-glucosaminide, pH 7.0, Cheng-Prusoff; read-out: Fluorescence-based hOGA Ki
Protocol: Experimental procedure for kinetic analyses: Enzymatic reactions were carried out in a reaction containing 50 mM NaH2PO4, 100 mM NaCl and 0.1% BSA (pH 7.0) using 2 mM 4-Methylumbelliferyl N-acetyl-β-D-glucosaminide dihydrate (Sigma M2133) dissolved in ddH2O, as a substrate. The amount of purified human O-GlcNAcase enzyme used in the reaction was 0.7 nM. Test compound of varying concentrations was added to the enzyme prior to initiation of the reaction. The reaction was performed at room temperature in a 96-well plate and was initiated with the addition of substrate. […] The slope of product production was determined for each concentration of compound tested and plotted, using standard curve fitting algorithms for sigmoidal dose response curves. The values for a four parameter logistic curve fit of the data were determined.

[2] = system: O-GlcNAcylated protein in rat PC-12 cells; experiment: Cell-based ELISA for cellular activity of O-GlcNAcase inhibitors (RL-2 antibody); conditions: 24 h treatment, increase in O-GlcNAcylated protein detected with RL-2 antibody
Excerpt: Inhibition of O-GlcNAcase, which removes O-GlcNAc from cellular proteins, results in an increase in the level of O-GlcNAcylated protein in cells. An increase in O-GlcNAcylated protein can be measured by an antibody, such as RL-2, that binds to O-GlcNAcylated protein. The amount of O-GleNAcylated protein:RL2 antibody interaction can be measured by enzyme linked immunosorbant assay (ELISA) procedures.
A variety of tissue culture cell lines, expressing endogenous levels of O-GlcNAcase, can be utilized; examples include rat PC-12, and human U-87, or SK-N-SH cells. In this assay,rat PC-12 cells were plated in 96-well plates with approximately 10,000 cells/well. Compounds to be tested were dissolved in DMSO, either 2 or 10 mM stock solution, and then diluted with DMSO and water in a two-step process using a Tecan workstation. […] To prepare a cell lysate, the media from compound treated cells was removed, the cells were washed once with phosphate buffered saline (PBS) and then lysed for 5 minutes at room temperature in 50 μL of Phosphosafe reagent (Novagen Inc, Madison, Wis.) with protease inhibitors and PMSF. The cell lysate was collected and transferred to a new plate, which was then either coated to assay plates directly or frozen −80° C. until used in the ELISA procedure. If desired, the total protein concentration of samples was determined using 20 μL of the sample using the BCA method.
The ELISA portion of the assay was performed in a black Maxisorp 96-well plate that was coated overnight at 4° C. with 100 μL/well of the cell lysate (1:10 dilution of the lysate with PBS containing protease inhibitors, phosphatase inhibitors, and PMSF). The following day the wells were washed 3 times with 300 μL/well of Wash buffer (Tris-buffered saline with 0.1% Tween 20). The wells were blocked with 100 μl/well Blocking buffer (Tris buffered saline w/0.05% Tween 20 and 2.5% Bovine serum albumin). Each well was then washed two times with 300 μL/well of wash buffer. […] The plate was sealed and incubated at 37° C. for 2 h with gentle shaking. The wells were then washed 3-times with 300 μL/well wash buffer. […] The plate was incubated for 60 min at 37° C. with gentle shaking. Each well was then washed 3-times with 300 μL/well wash buffer. The detection reagent was added, 100 μL/well of Amplex Ultra RED reagent (prepared by adding 30 μL of 10 mM Amplex Ultra Red stock solution to 10 mL PBS with 18 μL 3% hydrogen peroxide, H2O2). The detection reaction was incubated for 15 minutes at room temperature and then read with excitation at 530 nm and emission at 590 nm.
The amount of O-GlcNAcylated protein, as detected by the ELISA assay, was plotted for each concentration of test compound using standard curve fitting algorithms for sigmoidal dose response curves. The values for a four parameter logistic curve fit of the data were determined, with the inflection point of the curve being the potency value for the test compound.

Chain of human O-GlcNAcase (O60502 whole entry): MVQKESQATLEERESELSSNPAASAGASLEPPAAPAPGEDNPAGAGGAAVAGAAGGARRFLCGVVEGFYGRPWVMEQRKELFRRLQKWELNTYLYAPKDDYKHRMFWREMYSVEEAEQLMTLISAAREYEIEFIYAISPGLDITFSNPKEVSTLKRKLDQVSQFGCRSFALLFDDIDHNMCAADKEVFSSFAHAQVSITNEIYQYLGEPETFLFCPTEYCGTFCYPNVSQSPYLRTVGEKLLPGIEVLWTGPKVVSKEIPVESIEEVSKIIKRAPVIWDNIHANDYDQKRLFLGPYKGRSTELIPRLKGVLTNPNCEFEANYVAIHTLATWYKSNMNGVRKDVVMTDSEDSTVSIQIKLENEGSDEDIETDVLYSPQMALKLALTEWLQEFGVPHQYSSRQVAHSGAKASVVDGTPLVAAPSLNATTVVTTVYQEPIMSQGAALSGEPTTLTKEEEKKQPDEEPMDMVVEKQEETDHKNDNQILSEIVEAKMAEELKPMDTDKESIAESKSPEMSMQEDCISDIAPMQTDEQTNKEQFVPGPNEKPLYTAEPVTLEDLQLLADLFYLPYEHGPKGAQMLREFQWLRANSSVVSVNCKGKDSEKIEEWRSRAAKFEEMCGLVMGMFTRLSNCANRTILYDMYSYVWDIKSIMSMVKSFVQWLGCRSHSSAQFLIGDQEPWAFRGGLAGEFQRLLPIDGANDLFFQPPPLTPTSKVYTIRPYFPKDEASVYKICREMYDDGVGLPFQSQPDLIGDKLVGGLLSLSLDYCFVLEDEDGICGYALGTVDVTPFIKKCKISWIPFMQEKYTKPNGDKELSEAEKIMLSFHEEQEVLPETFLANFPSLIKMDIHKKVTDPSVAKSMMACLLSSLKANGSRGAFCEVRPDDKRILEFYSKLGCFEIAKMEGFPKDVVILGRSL

SMILES | Papp at 3 h, 1 μM [1] [×10⁻⁶ cm/s] | Ki (human O-GlcNAcase) [nM] | EC50 [2] [nM]
CN(C)C1=N[C@@H]2[C@@H](O)[C@H](O)[C@@H](CO)O[C@@H]2S1 [(3aR,5R,6S,7R,7aR)-2-(dimethylamino)-5-(hydroxymethyl)-5,6,7,7a-tetrahydro-3aH-pyrano[3,2-d]thiazole-6,7-diol, reference compound] | < 1 | 0.3 | 10
CCNC1=N[C@@H]2[C@@H](O)[C@H](O)[C@@H](CO)O[C@@H]2S1 [(3aR,5R,6S,7R,7aR)-2-(ethylamino)-5-(hydroxymethyl)-5,6,7,7a-tetrahydro-3aH-pyrano[3,2-d]thiazole-6,7-diol, reference compound] | < 1 |  | 
CCNC1=N[C@@H]2[C@@H](O)[C@H](O)[C@@H](C)O[C@@H]2S1 [Example 1, (3aR,5R,6S,7R,7aR)-2-(ethylamino)-5-methyl-5,6,7,7a-tetrahydro-3aH-pyrano[3,2-d]thiazole-6,7-diol] |  | 70 | 
CCNC1=N[C@@H]2C[C@H](O)[C@@H](CO)O[C@@H]2S1 [Example 2, (3aR,5R,6S,7aR)-2-(ethylamino)-5-(hydroxymethyl)-5,6,7,7a-tetrahydro-3aH-pyrano[3,2-d]thiazol-6-ol] | 3.8 |  | 
CNC1=N[C@@H]2[C@@H](F)[C@H](O)[C@@H](CO)O[C@@H]2S1 [Example 9, (3aR,5R,6R,7R,7aR)-7-fluoro-5-(hydroxymethyl)-2-(methylamino)-5,6,7,7a-tetrahydro-3aH-pyrano[3,2-d]thiazol-6-ol] |  | 1.3 | 307
CNC1=N[C@@H]2[C@@H](O)[C@H](O)[C@@H](CF)O[C@@H]2S1 [Example 17, (3aR,5S,6S,7R,7aR)-5-(fluoromethyl)-2-(methylamino)-5,6,7,7a-tetrahydro-3aH-pyrano[3,2-d]thiazole-6,7-diol] | 7.1 | 0.5 | 34
CCNC1=N[C@@H]2[C@@H](O)[C@H](O)[C@@H](C(F)F)O[C@@H]2S1 [Example 19, (3aR,5S,6S,7R,7aR)-5-(difluoromethyl)-2-(ethylamino)-5,6,7,7a-tetrahydro-3aH-pyrano[3,2-d]thiazole-6,7-diol] | 6 | 5.7 | 53
CN(C)C1=N[C@@H]2[C@@H](O)[C@H](O)[C@@H](C(F)F)O[C@@H]2S1 [Example 20, (3aR,5S,6S,7R,7aR)-5-(difluoromethyl)-2-(dimethylamino)-5,6,7,7a-tetrahydro-3aH-pyrano[3,2-d]thiazole-6,7-diol] | 13.7 | 1.4 | 6
CNC1=N[C@@H]2C[C@H](O)[C@@H](C(F)F)O[C@@H]2S1 [Example 27, (3aR,5S,6S,7aR)-5-(difluoromethyl)-2-(methylamino)-5,6,7,7a-tetrahydro-3aH-pyrano[3,2-d]thiazol-6-ol] | 24 | 28 | 
CCNC1=N[C@@H]2[C@@H](O)[C@@H](O)[C@@H](C(F)F)O[C@@H]2S1 [Example 29, (3aR,5S,6R,7R,7aR)-5-(difluoromethyl)-2-(ethylamino)-5,6,7,7a-tetrahydro-3aH-pyrano[3,2-d]thiazole-6,7-diol] |  | 164 | 
CNC1=N[C@@H]2[C@H](F)[C@H](O)[C@@H](C(F)F)O[C@@H]2S1 [Example 33, (3aR,5S,6R,7S,7aR)-5-(difluoromethyl)-7-fluoro-2-(methylamino)-5,6,7,7a-tetrahydro-3aH-pyrano[3,2-d]thiazol-6-ol] | 20.1 | 13 | 
